Reference: PMC1764755, “Human antimicrobial peptide LL-37 is present in atherosclerotic plaques and induces death of vascular smooth muscle cells: a laboratory study” (BMC Cardiovascular Disorders, 2006)

What was measured:
Assay type in all cases: cell-based
human neutrophils = assay: Flow cytometry, FITC-annexin V / propidium iodide; conditions: LL-37 30 μg/ml, 30 and 120 minutes, not shown
Method: Human neutrophils were isolated from heparinized blood from healthy donors using the Polymorph isolation kit (Nycomed Pharma AS Diagnostics, Oslo, Norway). Following the manufacturer's instructions, whole blood was layered carefully on neutrophil isolation medium and centrifuged at 400 × g for 30 min at room temperature. After centrifugation the following fractions were apparent: mononuclear cells, neutrophils and erythrocyte pellet. The polymorphonuclear leukocytes layer was suspended in PBS, followed by 10 min centrifugation at 350 × g; residual erythrocytes were removed by hypotonic lysis. After two washes in PBS with centrifugation for 5 min at 250 × g, the pellet was suspended in Minimum essential medium (MEM) and neutrophils were counted using a hemocytometer. The concentration of cells was adjusted to 10^7 cells/ml.
Rat aorta smooth muscle cells were harvested from culture plates using trypsin/EDTA and washed in PBS once followed by a 2-h incubation in bicarbonate free MEM at 37°C using gentle end-over-end rotation. […] Fluorescence-activated cell sorter (FACS) analysis was performed immediately (Becton Dickinson FACS Calibur instrument). 10,000 cells/sample were counted, and results were evaluated by using the Cell Quest software (Becton Dickinson). […]

[1] = test system: rat aorta smooth muscle cells; assay: Flow cytometry, FITC-annexin V / propidium iodide; conditions: LL-37 30 μg/ml
Method: Rat aorta smooth muscle cells were harvested from culture plates using trypsin/EDTA and washed in PBS once followed by a 2-h incubation in bicarbonate free MEM at 37°C using gentle end-over-end rotation. […] Staining was performed for 20 min on ice with FITC-annexin V (30 μg/ml) and propidium iodide (30 μg/ml, BD Pharmingen, San Diego, CA, USA) in calcium-containing PBS. Fluorescence-activated cell sorter (FACS) analysis was performed immediately (Becton Dickinson FACS Calibur instrument). 10,000 cells/sample were counted, and results were evaluated by using the Cell Quest software (Becton Dickinson). The same protocol was used for staining of human neutrophils incubated with LL-37 (30 μg/ml) for 30 or 120 min.

[2] = test system: rat aorta smooth muscle cells; assay: Microscopy of cultured cells (Nomarski, DAPI, FITC-annexin V); conditions: for morphological changes: serum free DMEM
Method: Rat aorta smooth muscle cells were grown on methanol-cleansed coverslips in 6-well plates and incubated for 2 or 5 h in serum free DMEM with/without LL-37 (10 or 30 μg/ml) or camptothecin (5 μg/ml, Sigma-Aldrich). After culture, the coverslips were washed with ice-cold PBS containing 1 mM Ca^2+ and the cells were then stained at room temperature for 20 min with FITC-annexin V (20 μg/ml, Roche Molecular Biochemicals, Mannheim, Germany) and 4'6-diamino-2-phenyliondole dihydrochloride (DAPI) nucleic acid stain (100 nM, Molecular probes, Eugene, OR, USA). Thereafter, the cells were fixed with 1 % paraformaldehyde (Becton Dickinson, Bedford MA, U.S.A) in ice-cold PBS containing 1 mM Ca^2+. Fixation was initiated on ice for 15 min and continued at room temperature for 45 min. Cover slips were then mounted using ProLong AntiFade Reagent (Molecular Probes). Visual inspection and recording of images was performed using a Nikon Eclipse TE300 inverted fluorescence microscope equipped with a Hamamatsu C4742-95 cooled CCD camera, using a Plan Apochromat 60 × objective.

[3] = test system: rat aorta smooth muscle cells; assay: LDH release assay; conditions: LL-37 30 μg/ml, 1, 3 and 7 h, n = 7, P < 0.05
Method: Confluent rat aorta smooth muscle cells cultured on 24-well plates were incubated for 1, 3, or 7 h in serum free DMEM in the absence (control) or presence of LL-37 (10 or 30 μg/ml). The lactate dehydrogenase (LDH) activity released into the medium was measured by using the in vitro toxicology assay kit (Tox-7, Sigma-Aldrich) according to the manufacturer's instructions. In short, the medium was centrifuged at 2000 × g for 4 min. The LDH in the supernatants converted a tetrazolium dye, which was measured spectrophotometrically at 490 nm. The LDH activity is expressed as % of total LDH activity of lysed cells.

[4] = test system: caspase-3 activity in rat aorta smooth muscle cells; assay: Caspase-3 activity (fluorometric immunosorbent enzyme assay, FIENA); conditions: LL-37 30 μg/ml, 1, 3 and 7 h, corrected for intact cells, n = 6, P < 0.05
Method: Confluent rat aorta smooth muscle cells cultured on 24-well plates were incubated for 1, 3 or 7 h in serum free DMEM in the absence (control) or presence of LL-37 (10 or 30 μg/ml). The caspase-3 activity was measured by using a fluorometric immunosorbent enzyme assay (FIENA, Roche Molecular Biochemicals) according to the manufacturer's instructions. Briefly, the caspase-3 from cellular lysates was captured by immobilized monoclonal anti-caspase-3 antibodies followed by addition of a substrate that is cleaved by caspase-3 generating a fluorescent compound. Fluorescence was then measured at 400 nm excitation and 505 nm emission. […] The caspase-3 activity values were therefore corrected in order to correspond to the fraction of intact cells using the formula […]
Where VIC is the caspase-3 activity of intact cells, VC is the caspase-3 activity of the sample, VL is the LDH activity of the sample and VLT is the total LDH activity of lysed cells. The caspase-3 activity is expressed as % of untreated controls.

[5] = test system: rat aorta smooth muscle cells; assay: Internucleosomal DNA fragmentation (Cell Death Detection ELISA); conditions: 16 h, n = 7, P < 0.05
Method: (§1) Confluent rat or human aorta smooth muscle cells cultured on 24-well plates were incubated in serum free DMEM for 16 h in the absence (control) or presence of LL-37 (10 and 30 μg/ml). Internucleosomal DNA fragmentation was measured using a Cell Death Detection ELISA Kit (Roche Molecular Biochemicals) according to the manufacturer's instructions. In short, the cells were lysed in the culture wells and the DNA fragments in the lysate were bound to a microtiter plate coated with monoclonal anti-histone antibodies. The bound DNA fragments were then detected by peroxidase-conjugated monoclonal anti-DNA antibodies and 2,2'-azino-di- [3-ethylbenzthiazoline sulfonate]. Optical density was measured at 415 nm and is expressed as % of untreated controls.

[6] = test system: human aortic smooth muscle cells; assay: as above; conditions: LL-37 30 μg/ml, 16 h, n = 7, P < 0.05
Method: as §1

| Structure (SMILES) | staining with propidium iodide and FITC-annexin V (human neutrophils) | increase in the propidium iodide fluorescence signal of the necrotic cells [1] | increase in FITC-annexin V fluorescence ([1]; 10 to 180 minutes) | leftmost peak of FITC-annexin V fluorescence histogram ([1]; 10 minutes) | leftmost peak of FITC-annexin V fluorescence histogram ([1]; 180 minutes) | increase in propidium iodide staining of the viable cells ([1]; within 10 minutes) | morphological changes ([2]; LL-37 10 μg/ml, not shown) | FITC-annexin V binding of plasma membrane (microscopy) ([2]; LL-37 30 μg/ml, 2 or 5 h) | nuclear appearance (DAPI stain) ([2]; LL-37 30 μg/ml, 2 or 5 h) | morphological changes ([2]; LL-37 30 μg/ml, 2 or 5 h) | release of LDH into medium versus control [3] | caspase-3 activity versus untreated controls [4] | DNA fragmentation compared to controls ([5]; LL-37 10 μg/ml) | DNA fragmentation compared to controls ([5]; LL-37 30 μg/ml) | DNA fragmentation compared to controls [6] | cellular changes compared with those induced by LL-37 (30 μg/ml) ([2]; camptothecin 5 μg/ml, not shown) |
| --- | --- | --- | --- | --- | --- | --- | --- | --- | --- | --- | --- | --- | --- | --- | --- | --- |
| CC[C@H](C)[C@H](NC(=O)[C@H](CCCCN)NC(=O)[C@H](CCC(=O)O)NC(=O)[C@H](CCCCN)NC(=O)[C@H](CO)NC(=O)[C@H](CCCCN)NC(=O)[C@H](CCCNC(=N)N)NC(=O)[C@H](Cc1ccccc1)NC(=O)[C@H](Cc1ccccc1)NC(=O)[C@H](CC(=O)O)NC(=O)CNC(=O)[C@H](CC(C)C)NC(=O)[C@@H](N)CC(C)C)C(=O)NCC(=O)N[C@@H](CCCCN)C(=O)N[C@@H](CCC(=O)O)C(=O)N[C@@H](Cc1ccccc1)C(=O)N[C@@H](CCCCN)C(=O)N[C@@H](CCCNC(=N)N)C(=O)N[C@H](C(=O)N[C@H](C(=O)N[C@@H](CCC(N)=O)C(=O)N[C@@H](CCCNC(=N)N)C(=O)N[C@H](C(=O)N[C@@H](CCCCN)C(=O)N[C@@H](CC(=O)O)C(=O)N[C@@H](Cc1ccccc1)C(=O)N[C@@H](CC(C)C)C(=O)N[C@@H](CCCNC(=N)N)C(=O)N[C@@H](CC(N)=O)C(=O)N[C@@H](CC(C)C)C(=O)N[C@H](C(=O)N1CCC[C@H]1C(=O)N[C@@H](CCCNC(=N)N)C(=O)N[C@H](C(=O)N[C@@H](CCC(=O)O)C(=O)N[C@@H](CO)C(=O)O)[C@@H](C)O)C(C)C)[C@@H](C)CC)C(C)C)[C@@H](C)CC [LL-37] | weak staining | about 1000 fold | 15 fold | about 2 fluorescence units | ~30 units | 10 fold | only small and inconsistent morphological changes | bound FITC-annexin V | nuclei of most cells appeared smaller with fragmented chromatin | progressive cell shrinkage and a rough appearance of the cell membrane | significantly increased | significant increase | statistically significant DNA fragmentation | statistically significant DNA fragmentation | statistically significant DNA fragmentation | – |
| CC[C@@]1(O)C(=O)OCc2c1cc1n(c2=O)Cc2cc3ccccc3nc2-1 [camptothecin] | – | – | – | – | – | – | – | – | – | – | – | – | – | – | – | similar |
